Source: patent EP2014287A1, “Use of cinnamic acid derivatives as modulators of an EP2 receptor” (Bayer Schering Pharma Aktiengesellschaft, priority 2007, dated 2009)

How the values were obtained:
[1] = tested on: Kumulus-Eizell Komplexe; assay: cumulus expansion test in vitro; assay type: cell-based, Mäusen; details: in competition with PGE2
From the text: In immaturen weiblichen Mäusen (Stamm : CD1 (ICR) von Charles River) wird in einem Alter von 14-18 Tagen die Follikulogenese durch eine einmalige Gabe (intraperitoneal) von 10 I.E. PMSG (Pregnant Mare Serum Gonadotropine; Sigma G-4877, Lot 68H0909) induziert. 47 - 50 Stunden nach der Injektion werden die Ovarien entnommen und die Kumulus-Eizell Komplexe entnommen. Der Kumulus Komplex ist in diesem Stadium noch nicht expandiert. Die Kumulus-Eizell Komplexe werden nun für 20 - 24 Stunden mit Prostaglandin E2 (PGE2) (0,3 µM), Vehikel Kontrolle (Ethanol) oder Testsubstanzen inkubiert. Medium: alpha- MEM Medium mit 0,1 mM IBMX, Pyruvate (0,23 mM) Glutamine (2 mM), Pen/Strep 100 IU/ml Pen. und 100 µg/ml Strep.) und HSA (8 mg/ml)). Danach wird die Kumulus Expansion durch die Einteilung in vier Stadien (nach Vanderhyden et al. Dev Biol. 1990 Aug;140(2):307-317) festgestellt. Tabelle 1: Beispiel für die biologische Wirksamkeit der erfindungsgemäßen Verbindungen (gemessen mittels cAMP Antagonismustest): […]

[2] = biological target: T1, humanen Prostaglandin E2 (Subtyp EP2) Rezeptor (Homo sapiens, UniProt P43116); assay: cAMP antagonism test (HTRF cAMP detection, in presence of PGE2); assay type: cell-based; details: cAMP Antagonismustest, read-out: Antagonismus [IC50
T1 construct: host or cells: cells in a culture plate
From the text: Die Bindung von PGE2 an den EP2-Subtyp des humanen PGE2-Rezeptors induziert die Aktivierung membranständiger Adenylatzyklasen und führt zur Bildung von cAMP. In Gegenwart des Phosphodiesteraseinhibitors IBMX wird das durch diese Stimulation akkumulierte und mittels Zell-Lyse freigesetzte cAMP in einem kompetitiven Nachweisverfahren eingesetzt. In diesem Test konkurriert das cAMP im Lysat mit cAMP-XL665 um die Bindung eines Eu-Kryptat markierten Anti-cAMP Antikörpers. Dabei entsteht in Abwesenheit von zellulärem cAMP ein maximales Signal, welches auf der Kopplung dieses Antikörpers an das cAMP-XL665 Molekül beruht. Dadurch entsteht nach Anregung bei 337 nm ein auf FRET (fluorescence resonance energy transfer) basierendes, lang anhaltendes Emissionssignal bei 665 nm (und bei […]). Beide Signale werden in einem geeigneten Messgerät zeitlich versetzt, d.h. nach Abklingen der Hintergrundsfluoreszenz gemessen. Jegliche Erhöhung des durch Prostglandin-E2-Gabe bedingten niedrigen FRET-Signals (gemessen als Well-Ratio-Veränderung = Emission665nm/Emission620nm * 10000) zeigt die Wirkung von Antagonisten.
Die in einer Testplatte und 30 % DMSO vorgelegten Substanzlösungen (0.75 µl) werden in 16 µl einer KRSB+IBMX-Stimulationslösung gelöst (1 X Krebs-Ringer Bicarbonate Buffer; Sigma-Aldrich # K-4002; inklusive 750 µM 3-Isobutyl-1-methylxanthine Sigma-Aldrich # I-7018), anschließend werden 15 µl davon in eine medienfreie Zellkulturplatte überführt, die kurz zuvor mit KRSB gewaschen worden war. Nach einer 30-minütigen Vorinkubation bei Raumtemperatur (RT) werden 5 µl einer 4xPGE2 Lösung (11 nM) zugegeben und in Gegenwart des Agonisten für weitere 60 min bei RT inkubiert (Volumen: - 20 µl), bevor die Reaktion anschließend durch Zugabe von 5 µl Lysispuffer gestoppt und für weitere 20 min bei RT inkubiert wird (Volumen: - 25 µl). Das Zell-Lysat wird anschließend in eine Messplatte überführt und entsprechend den Herstellerangaben (cyclic AMP kit Cisbio International # 62AMPPEC) gemessen.

[3] = biological target: T1, humanen Prostaglandin E2 (Subtyp EP2) Rezeptor; assay: cellular agonism test (HTRF cAMP detection, without PGE2); assay type: cell-based

T1 sequence (P43116 whole entry): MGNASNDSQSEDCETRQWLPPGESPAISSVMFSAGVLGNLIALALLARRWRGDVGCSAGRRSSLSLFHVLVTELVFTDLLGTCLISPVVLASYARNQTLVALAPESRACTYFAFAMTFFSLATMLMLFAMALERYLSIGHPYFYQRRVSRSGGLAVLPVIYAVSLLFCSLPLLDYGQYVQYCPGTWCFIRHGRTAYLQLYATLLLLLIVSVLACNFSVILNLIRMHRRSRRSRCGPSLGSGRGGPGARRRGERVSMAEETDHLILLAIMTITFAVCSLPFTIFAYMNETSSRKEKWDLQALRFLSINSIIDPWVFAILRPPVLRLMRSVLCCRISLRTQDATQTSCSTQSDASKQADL

## CC(C)Oc1ccc2c(=O)c3cc(C(=O)O)ccc3oc2c1 [AH 6809, reference compound]
[1]; 100 - 200 µM
  Unterdrückung der Kumulus Expansion: ca. 30%

## CCOc1cccc(CCC(=O)NCCc2c(C)[nH]c3c(F)ccc(C)c23)c1 [Beispiel 7, 3-(3-Ethoxyphenyl)-N-[2-(7-fluoro-2,4-dimethyl-1 H-indol-3-yl)-ethyl]-propionamid]
[2]
  IC50: 1200 nM

## Cc1[nH]c2c(F)ccc(C)c2c1CCNC(=O)CCc1ccc(F)cc1 [Beispiel 9, N-[2-(7-Fluoro-2,4-dimethyl-1 H-indol-3-yl)-ethyl]-3-(4-fluorophenyl)-propionamid]
[2]
  IC50: 1500 nM
[3]
  Wirkung im zellulären Agonismustest: keine Inhibition
[1]; 10 µM
  Unterdrückung der Kumulus Expansion: 20%

## Cc1[nH]c2c(F)ccc(C)c2c1CCNC(=O)/C=C/c1cc(F)cc(F)c1 [Beispiel 20, (E)-3-(3,5-Difluorphenyl)-N-[2-(7-fluor-2,4-dimethyl-1 H-indol-3-yl)-ethyl]-acrylamid]
[2]
  IC50: 830 nM
